According to US8216786B2, “Genetic polymorphisms associated with cardiovascular diseases, methods of detection and uses thereof” (Celera Corporation, priority 2008, dated 2012):

System: individuals who have previously had an MI
Assay: CARE trial: effect of pravastatin vs placebo on coronary events (endpt1, rmi) by SNP genotype subgroup
Assay type: in vivo, human
Conditions: for HR: pravastatin vs placebo
Method: In Tables 21-22, the column labeled “Endpoint” indicates whether the endpoint that was analyzed was the primary endpoint of the CARE study (a composite endpoint of fatal coronary event or nonfatal MI, and identified as “endpt1”) or a composite endpoint of confirmed fatal or nonfatal MI (identified as “rmi”). […] As used herein, the term “benefit” (with respect to a preventive or therapeutic drug treatment) is defined as achieving a reduced risk for a disease that the drug is intended to treat or prevent (e.g., CVD such as CHD, particularly MI, or hypertension) by administering the drug treatment, compared with the risk for the disease in the absence of receiving the drug treatment (or receiving a placebo in lieu of the drug treatment) for the same genotype. […] J. […] (1996) New England Journal of Medicine 335: 1001-1009. […] A well-documented MI was one of the enrollment criteria for entry into the CARE study. Patients were enrolled in the CARE trial from 80 participating study centers. […] For the study of CARE described in this Example and shown in Tables 21-22, two endpoints were investigated: the primary endpoint of CARE (a composite endpoint of fatal coronary event or nonfatal MI, and identified as “endpt1” in the Endpoint column of Tables 21-22) and a composite endpoint of confirmed fatal or nonfatal MI (identified as “rmi” in the Endpoint column of Tables 21-22). […] HR stands for Hazard Ratio, which is a concept similar to Odds Ratio (OR). The HR in event-free survival analysis is the effect of an explanatory variable on the hazard or risk of an event. […] In Table 21, p-interaction values were calculated. An interaction (or effect modification) is formed when a third variable modifies the relation between an exposure and outcome. […] Genotype and drug interaction is present when the effect of statins (incidence rate of disease in statin-treated group, as compared to placebo) differs in patients with different genotypes.

[1] = endpt1, hCV25631989 rs1135983 ATF6, CC
[2] = endpt1, hCV25631989 rs1135983 ATF6, TC + TT
[3] = endpt1, hCV25637309 rs3204849 CCRL2, AA
[4] = endpt1, hCV25637309 rs3204849 CCRL2, AT + TT
[5] = endpt1, hCV25644901 ITGA9, GA + GG
[6] = endpt1, hCV25651076 rs5743291 NOD2, AG + AA
[7] = endpt1, hCV25651076 rs5743291 NOD2, GG
[8] = endpt1, hCV25651174 rs9277356 HLA-DPB1, GA + GG
[9] = endpt1, hCV342590 rs6030 F5, Strata CC
[10] = endpt1, hCV342590 rs6030 F5, Strata CT
[11] = endpt1, hCV342590 rs6030 F5, Strata TT
[12] = endpt1, hCV435368 rs2812 PECAM1, Strata CC
[13] = endpt1, hCV435368 rs2812 PECAM1, Strata TC
[14] = endpt1, hCV435368 rs2812 PECAM1, Strata TT
[15] = endpt1, hCV3135085 rs10795446 CUBN, Strata GT
[16] = endpt1, hCV3135085 rs10795446 CUBN, Strata TT
[17] = endpt1, hCV3275199 rs2069885 IL9, Strata AA
[18] = endpt1, hCV3275199 rs2069885 IL9, Strata AG
[19] = endpt1, hCV3275199 rs2069885 IL9, Strata GG

CC[C@H](C)C(=O)O[C@H]1C[C@H](O)C=C2C=C[C@H](C)[C@H](CC[C@@H](O)C[C@@H](O)CC(=O)O)[C@H]21 [pravastatin]
NONEVENT (Pravastatin arm) (endpt1, hCV25630686 PSMB9, TC + TT): 85 | EVENTS (Pravastatin arm) [1]: 107 | NONEVENT (Pravastatin arm) [1]: 1044 | EVENTS (Pravastatin arm) [2]: 26 | NONEVENT (Pravastatin arm) [2]: 198 | EVENTS (Pravastatin arm) [3]: 24 | NONEVENT (Pravastatin arm) [3]: 184 | EVENTS (Pravastatin arm) [4]: 109 | NONEVENT (Pravastatin arm) [4]: 1107 | EVENTS (Pravastatin arm) (endpt1, hCV25640504, TC + CC): 113 | NONEVENT (Pravastatin arm) (endpt1, hCV25640504, TC + CC): 1035 | EVENTS (Pravastatin arm) (endpt1, hCV25640504, TT): 12 | NONEVENT (Pravastatin arm) (endpt1, hCV25640504, TT): 194 | EVENTS (Pravastatin arm) (endpt1, hCV25644901 ITGA9, AA): 124 | NONEVENT (Pravastatin arm) (endpt1, hCV25644901 ITGA9, AA): 1171 | EVENTS (Pravastatin arm) [5]: 9 | NONEVENT (Pravastatin arm) [5]: 120 | EVENTS (Pravastatin arm) [6]: 28 | NONEVENT (Pravastatin arm) [6]: 217 | EVENTS (Pravastatin arm) [7]: 104 | NONEVENT (Pravastatin arm) [7]: 1068 | EVENTS (Pravastatin arm) [8]: 76 | NONEVENT (Pravastatin arm) [8]: 641 | EVENTS (Pravastatin arm) [9]: 15 | NONEVENT (Pravastatin arm) [9]: 123 | EVENTS (Pravastatin arm) [10]: 44 | NONEVENT (Pravastatin arm) [10]: 553 | EVENTS (Pravastatin arm) [11]: 74 | NONEVENT (Pravastatin arm) [11]: 613 | EVENTS (Pravastatin arm) [12]: 37 | NONEVENT (Pravastatin arm) [12]: 369 | EVENTS (Pravastatin arm) [13]: 56 | NONEVENT (Pravastatin arm) [13]: 649 | EVENTS (Pravastatin arm) [14]: 40 | NONEVENT (Pravastatin arm) [14]: 272 | EVENTS (Pravastatin arm) [15]: 64 | NONEVENT (Pravastatin arm) [15]: 554 | EVENTS (Pravastatin arm) [16]: 57 | NONEVENT (Pravastatin arm) [16]: 575 | EVENTS (Pravastatin arm) [17]: 5 | NONEVENT (Pravastatin arm) [17]: 28 | EVENTS (Pravastatin arm) [18]: 18 | NONEVENT (Pravastatin arm) [18]: 310 | EVENTS (Pravastatin arm) [19]: 109 | NONEVENT (Pravastatin arm) [19]: 947 | HR (hCV16189421, first genotype stratum listed (strata and endpoint not given)): 1 | HR (hCV16189421, second genotype stratum listed (strata and endpoint not given)): 0.67 | HR (hCV25630686, first genotype stratum listed (strata and endpoint not given)): 0.35 | HR (hCV25630686, second genotype stratum listed (strata and endpoint not given)): 0.81 | HR (hCV25631989, first genotype stratum listed (strata and endpoint not given)): 1.83 | HR (hCV25631989, second genotype stratum listed (strata and endpoint not given)): 0.72 | HR (hCV25644901, first genotype stratum listed (strata and endpoint not given)): 0.32 | HR (hCV25644901, second genotype stratum listed (strata and endpoint not given)): 0.86
